From patent US7632972B2, “Compounds and methods for treatment of cancer and modulation of programmed cell death for melanoma and other cancer cells” (The Board of Trustees of the University of Illionis, priority 2003, dated 2009)

Tests used:
Type in all cases: cell-based, human
ACHN = test: NCI 60 cell line screen (SRB), Renal Cancer
Source text: (§1) The operation of this screen utilizes 60 different human tumor cell lines, representing leukemia, melanoma and cancers of the lung, colon, brain, ovary, breast, prostate, and kidney. The aim is to prioritize for further evaluation, synthetic compounds or natural product samples showing selective growth inhibition or cell killing of particular tumor cell lines. This screen is unique in that the complexity of a 60 cell line dose response produced by a given compound results in a biological response pattern which can be utilized in pattern recognition algorithms. Using these algorithms, it is possible to assign a putative mechanism of action to a test compound, or to determine that the response pattern is unique and not similar to that of any of the standard prototype compounds included in the NCl database (see DTP Overview tab). In addition, following characterization of various cellular molecular targets in the 60 cell lines, it may be possible to select compounds most likely to interact with a specific molecular target.
(§2) The human tumor cell lines of the cancer screening panel are grown in RPMI 1640 medium containing 5% fetal bovine serum and 2 mM L-glutamine. For a typical screening experiment, cells are inoculated into 96 well microtiter plates in 100 μL at plating densities ranging from 5,000 to 40,000 cells/well depending on the doubling time of individual cell lines. After cell inoculation, the microtiter plates are incubated at 37° C., 5% CO2, 95% air and 100% relative humidity for 24 h prior to addition of experimental drugs.
(§3) After 24 h, two plates of each cell line are fixed in situ with TCA, to represent a measurement of the cell population for each cell line at the time of drug addition (Tz). Experimental drugs are solubilized in dimethyl sulfoxide at 400-fold the desired final maximum test concentration and stored frozen prior to use. At the time of drug addition, an aliquot of frozen concentrate is thawed and diluted to twice the desired final maximum test concentration with complete medium containing 50 μg/ml gentamicin. Additional four, 10-fold or ½ log serial dilutions are made to provide a total of five drug concentrations plus control. Aliquots of 100 μl of these different drug dilutions are added to the appropriate microtiter wells already containing 100 μl of medium, resulting in the required final drug concentrations.
(§4) Following drug addition, the plates are incubated for an additional 48 h at 37° C., 5% CO2, 95% air, and 100% relative humidity. For adherent cells, the assay is terminated by the addition of cold TCA. Cells are fixed in situ by the gentle addition of 50 μl of cold 50% (w/v) TCA (final concentration, 10% TCA) and incubated for 60 minutes at 4° C. The supernatant is discarded, and the plates are washed five times with tap water and air dried. Sulforhodamine B (SRB) solution (100 μl) at 0.4% (w/v) in 1% acetic acid is added to each well, and plates are incubated for 10 minutes at room temperature. After staining, unbound dye is removed by washing five times with 1% acetic acid and the plates are air dried. Bound stain is subsequently solubilized with 10 mM trizma base, and the absorbance is read on an automated plate reader at a wavelength of 515 nm. For suspension cells, the methodology is the same except that the assay is terminated by fixing settled cells at the bottom of the wells by gently adding 50 μl of 80% TCA (final concentration, 16% TCA). Using the seven absorbance measurements [time zero, (Tz), control growth, (C), and test growth in the presence of drug at the five concentration levels (Ti)], the percentage growth is calculated at each of the drug concentrations levels. Percentage growth inhibition is calculated as: [(Ti−Tz)/(C−Tz)]×100 for concentrations for which Ti>/=Tz [(Ti−Tz)/Tz]×100 for concentrations for which Ti<Tz.
(§5) Three dose response parameters are calculated for each experimental agent. […]

CAKI-1 = test: NCI 60 cell line screen (SRB), Renal Cancer
Source text: as §1, §2, §3, §4, §5

SN12C = test: NCI 60 cell line screen (SRB), Renal Cancer
Source text: as §1, §2, §3, §4, §5

UO-31 = test: NCI 60 cell line screen (SRB), Renal Cancer
Source text: as §1, §2, §3, §4, §5

SW-620 = test: NCI 60 cell line screen (SRB), Colon Cancer
Source text: as §1, §2, §3, §4, §5

HCT-116 = test: NCI 60 cell line screen (SRB), Colon Cancer
Source text: as §1, §2, §3, §4, §5

COLO 205 = test: NCI 60 cell line screen (SRB), Colon Cancer
Source text: as §1, §2, §3, §4, §5

HCT-15 = test: NCI 60 cell line screen (SRB), Colon Cancer
Source text: as §1, §2, §3, §4, §5

KM12 = test: NCI 60 cell line screen (SRB), Colon Cancer
Source text: as §1, §2, §3, §4, §5

[1] = read-out: LC50 (the source's name)

For COc1cccc(CCNC(=O)CC(c2ccccc2)(c2ccccc2)c2ccccc2)c1 [Compound Z3], the GI50 (ACHN) was 7.84 µM, the TGI (ACHN) was 9.48E−05 and the “Percent Growth” value (ACHN; Log10 Concentration −4.0) was −1%. For the same compound, the “Percent Growth” value (ACHN; Log10 Concentration −5.0) was 45%, the “Percent Growth” value (ACHN; Log10 Concentration −6.0) was 94% and the “Percent Growth” value (ACHN; Log10 Concentration −7.0) was 112%. The “Percent Growth” value (ACHN; Log10 Concentration −8.0) was 102%, the CC50 (ACHN; [1]) was > 100 µM and the GI50 (CAKI-1; CAKI-1) was 3.16 µM. For the same compound, the TGI (CAKI-1; CAKI-1) was 5.09E−05, the “Percent Growth” value (CAKI-1; CAKI-1, Log10 Concentration −4.0) was −9% and the “Percent Growth” value (CAKI-1; CAKI-1, Log10 Concentration −5.0) was 21%. The “Percent Growth” value (CAKI-1; CAKI-1, Log10 Concentration −6.0) was 79%, the “Percent Growth” value (CAKI-1; CAKI-1, Log10 Concentration −7.0) was 103% and the “Percent Growth” value (CAKI-1; CAKI-1, Log10 Concentration −8.0) was 97%. For the same compound, the CC50 (CAKI-1; CAKI-1, read-out: LC50 (the source's name)) was > 100 µM, the “Percent Growth” value (SN12C; Log10 Concentration −4.0) was 217% and the “Percent Growth” value (SN12C; Log10 Concentration −5.0) was −14%. For the same compound, the “Percent Growth” value (SN12C; Log10 Concentration −6.0) was 51%, the “Percent Growth” value (SN12C; Log10 Concentration −7.0) was 84% and the “Percent Growth” value (SN12C; Log10 Concentration −8.0) was 87%. The CC50 (SN12C; [1]) was > 100 µM, the GI50 (UO-31; UO-31) was 4.75 µM and the TGI (UO-31; UO-31) was >1.00E−04. For the same compound, the “Percent Growth” value (UO-31; UO-31, Log10 Concentration −4.0) was 20%, the “Percent Growth” value (UO-31; UO-31, Log10 Concentration −5.0) was 33% and the “Percent Growth” value (UO-31; UO-31, Log10 Concentration −6.0) was 85%. For the same compound, the “Percent Growth” value (UO-31; UO-31, Log10 Concentration −7.0) was 98%, the “Percent Growth” value (UO-31; UO-31, Log10 Concentration −8.0) was 86% and the CC50 (UO-31; UO-31, read-out: LC50 (the source's name)) was > 100 µM. The GI50 (SW-620; SW-620) was 85.2 µM, the TGI (SW-620; SW-620) was >1.00E−04 and the “Percent Growth” value (SW-620; SW-620, Log10 Concentration −4.0) was 49%. The “Percent Growth” value (SW-620; SW-620, Log10 Concentration −5.0) was 64%, the “Percent Growth” value (SW-620; SW-620, Log10 Concentration −6.0) was 97% and the “Percent Growth” value (SW-620; SW-620, Log10 Concentration −7.0) was 105%. The “Percent Growth” value (SW-620; SW-620, Log10 Concentration −8.0) was 95%, the CC50 (SW-620; SW-620, read-out: LC50 (the source's name)) was > 100 µM and the GI50 (HCT-116; HCT-116) was 2.58 µM. The TGI (HCT-116; HCT-116) was 2.67E−05, the “Percent Growth” value (HCT-116; HCT-116, Log10 Concentration −4.0) was −22% and the “Percent Growth” value (HCT-116; HCT-116, Log10 Concentration −5.0) was 16%. The “Percent Growth” value (HCT-116; HCT-116, Log10 Concentration −6.0) was 74%, the “Percent Growth” value (HCT-116; HCT-116, Log10 Concentration −7.0) was 91% and the “Percent Growth” value (HCT-116; HCT-116, Log10 Concentration −8.0) was 97%. The CC50 (HCT-116; HCT-116, read-out: LC50 (the source's name)) was > 100 µM, the GI50 (COLO 205; COLO 205) was 12.8 µM and the TGI (COLO 205; COLO 205) was >1.00E−04. The “Percent Growth” value (COLO 205; COLO 205, Log10 Concentration −4.0) was 27%, the “Percent Growth” value (COLO 205; COLO 205, Log10 Concentration −5.0) was 53% and the “Percent Growth” value (COLO 205; COLO 205, Log10 Concentration −6.0) was 106%. The “Percent Growth” value (COLO 205; COLO 205, Log10 Concentration −7.0) was 117%, the “Percent Growth” value (COLO 205; COLO 205, Log10 Concentration −8.0) was 99% and the CC50 (COLO 205; COLO 205, read-out: LC50 (the source's name)) was > 100 µM. For the same compound, the GI50 (HCT-15; HCT-15) was > 100 µM, the TGI (HCT-15; HCT-15) was >1.00E−04 and the “Percent Growth” value (HCT-15; HCT-15, Log10 Concentration −4.0) was 57%. For the same compound, the “Percent Growth” value (HCT-15; HCT-15, Log10 Concentration −5.0) was 62%, the “Percent Growth” value (HCT-15; HCT-15, Log10 Concentration −6.0) was 86% and the “Percent Growth” value (HCT-15; HCT-15, Log10 Concentration −7.0) was 99%. For the same compound, the “Percent Growth” value (HCT-15; HCT-15, Log10 Concentration −8.0) was 103%, the CC50 (HCT-15; HCT-15, read-out: LC50 (the source's name)) was > 100 µM and the GI50 (KM12; KM12) was 4.75 µM. The TGI (KM12; KM12) was >1.00E−04, the “Percent Growth” value (KM12; KM12, Log10 Concentration −4.0) was 14% and the “Percent Growth” value (KM12; KM12, Log10 Concentration −5.0) was 25%. The “Percent Growth” value (KM12; KM12, Log10 Concentration −6.0) was 101%, the “Percent Growth” value (KM12; KM12, Log10 Concentration −7.0) was 107% and the “Percent Growth” value (KM12; KM12, Log10 Concentration −8.0) was 111%. The CC50 (KM12; KM12, read-out: LC50 (the source's name)) was > 100 µM.
